Results on five compounds are retold here after patent US9839668B2, “Compositions and methods for the treatment of diseases related to the renin-angiotensin-system” (ATTOQUANT DIAGNOSTICS GMBH, priority 2013, dated 2017).

SMILES strings stand for the structures.

The test system of one assay is SHR rats. Description: Systolic blood pressure in male SHR rats, tail-cuff method. The class given is in vivo, rat. To be noted: day 7, mean +/-SEM. As for the experimental part:
Twenty male 16-week-old SHR rats were used for investigation of short-term effects of the new drug combination on systolic blood pressure. Prior to starting the treatment procedure, rats were conditioned to the experimental procedure by daily blood pressure measurements using the tail-cuff method for 1 week. […] Daily blood pressure measurements were performed 4 h following drug administration and continued throughout the whole treatment period. Blood-pressure data were evaluated by calculating the relative change in systolic blood pressure compared to the vehicle group at day 7 of drug administration. Statistical comparison between the groups was conducted by using Student's T-test.
Mean body weight and baseline systolic blood pressure of SHR rats were determined at the beginning of the treatment period resulting in a mean body weight of 283 g and mean systolic blood pressure of 196 mmHg. Following 7 days of daily oral administration of different compounds and compound combinations, systolic blood pressure was monitored by tail-cuff method and the relative changes compared to vehicle treated control rats (V) mean values are shown with corresponding standard errors of the mean (+/−SEM) (FIG. 1).

Assay [1] deals with Ang 1-8 and Ang 1-7 levels in human whole blood. Description: Ang 1-8 and Ang 1-7 levels in human heparinized whole blood plus recombinant human renin, ex vivo, LC-MS/MS. The class given is biochemical. To be noted: human whole blood + 100 pg/ml renin, 60 min 37° C., ACE inhibitors 10 μM; for Ang 1-7 level: vehicle control 27 pg/ml; for Ang 1-8 level: vehicle control 686 pg/ml. As for the experimental part:
Blood was collected from a human healthy volunteer using a standard heparin blood collection tube. Recombinant human renin was added to whole blood at a concentration of 100 pg/ml in order to simulate RAS hyper-activation. Drugs and combinations were added to different plasma samples at indicated final concentrations and combinations (FIG. 2) using appropriate solvent controls for each compound or combination tested. Following an incubation period of 60 min at 37° C., samples were stabilized by addition of protease inhibitors and Ang 1-8 and Ang 1-7 levels were measured by mass spectrometry.
Ang 1-8 and Ang 1-7 levels were measured following 1 h of incubating the compounds with human heparinized whole blood (plus recombinant human renin) at 37° C.

For assay [2], the target named is T1, APA (recombinant human ENPEP) (Homo sapiens, UniProt Q07075).
T1 construct: purchased R&D 2499-ZN
Description: In vitro APA activity assay: conversion of Ang 1-8 to Ang 2-8, LC-MS/MS. As to conditions: 0.1 μM Amastatin, 1 μg/ml APA. It counts as biochemical. As for the experimental part: (§1) APA activity was determined by measuring Ang 2-8 formation using LC-MS/MS. The Ang 2-8 formation rate is given in pg Ang 2-8/ml per minute. […] Following the incubation period, samples were cooled on ice, stabilized by the addition of protease inhibitors and analyzed for Ang 1-8 levels by LC-MS/MS.

A further assay relates to human APA in plasma. Briefly: Ex vivo APA activity and Ang 1-8 levels in human heparin plasma plus recombinant human renin. It counts as biochemical. As for the experimental part: as §1
For the next assay, the system named is Balb/c mice. Briefly: Plasma Ang 1-8 and Ang 1-7 levels in Balb/c mice after intra-peritoneal injection, LC-MS/MS. The class given is in vivo, mouse. As for the experimental part: Mice were sacrificed 4 h following drug administration and blood was collected in the presence of protease inhibitors suitable for stabilization of angiotensin peptides in the collected sample. Following centrifugation of blood at 2500 g for 5 min at 4° C., Ang 1-8 and Ang 1-7 was quantified in the plasma samples by LC-MS/MS analysis.

A further assay has as its target APN (EC 3.4.11.2) (Homo sapiens, UniProt P15144). To be noted: APN vs APA; cited from earlier work.
Another assay has as its system rats. As to conditions: administered to the periphery by intravenous injection in rats; cited from earlier work.
Another assay relates to APA over APN. As to conditions: cited from earlier work.
Another assay deals with SHR rat. To be noted: one SHR rat, i.v. 50 μmol/kg Lisinopril then 20 μmol/kg Amastatin, blood 10 min after each infusion.
A further assay has as its target T2, APA in the brain (Rattus norvegicus, UniProt P50123).
T2 construct: host or cells: brain, in vivo
As to conditions: via inhibition of APA by active metabolite EC-33 in the brain; cited from earlier work.

T1 sequence (Q07075 whole entry): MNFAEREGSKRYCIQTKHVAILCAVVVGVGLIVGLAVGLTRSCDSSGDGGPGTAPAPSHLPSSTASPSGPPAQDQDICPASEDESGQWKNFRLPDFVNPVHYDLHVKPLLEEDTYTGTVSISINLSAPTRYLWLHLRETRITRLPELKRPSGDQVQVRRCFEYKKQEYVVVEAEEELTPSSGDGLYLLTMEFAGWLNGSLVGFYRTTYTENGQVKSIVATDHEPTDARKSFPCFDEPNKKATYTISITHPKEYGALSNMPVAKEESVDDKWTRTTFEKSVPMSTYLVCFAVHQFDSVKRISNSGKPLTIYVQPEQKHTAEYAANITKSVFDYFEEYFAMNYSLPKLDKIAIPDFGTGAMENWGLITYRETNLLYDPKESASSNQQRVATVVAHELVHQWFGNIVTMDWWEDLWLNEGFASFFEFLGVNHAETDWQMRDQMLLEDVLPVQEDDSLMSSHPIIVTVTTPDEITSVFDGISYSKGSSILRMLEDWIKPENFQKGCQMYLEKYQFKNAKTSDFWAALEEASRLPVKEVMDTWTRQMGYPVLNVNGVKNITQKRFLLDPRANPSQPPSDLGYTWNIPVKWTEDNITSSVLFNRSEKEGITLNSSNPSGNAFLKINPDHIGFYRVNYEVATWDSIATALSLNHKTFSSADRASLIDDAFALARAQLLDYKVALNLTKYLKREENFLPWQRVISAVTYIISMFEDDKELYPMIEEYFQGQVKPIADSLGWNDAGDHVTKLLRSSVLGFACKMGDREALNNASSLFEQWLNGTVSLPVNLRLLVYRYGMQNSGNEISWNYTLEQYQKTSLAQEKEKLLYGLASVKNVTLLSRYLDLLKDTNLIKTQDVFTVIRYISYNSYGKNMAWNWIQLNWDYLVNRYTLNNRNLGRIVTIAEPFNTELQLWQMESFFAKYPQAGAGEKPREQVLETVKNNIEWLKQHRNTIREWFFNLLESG
T2 sequence (P50123 whole entry): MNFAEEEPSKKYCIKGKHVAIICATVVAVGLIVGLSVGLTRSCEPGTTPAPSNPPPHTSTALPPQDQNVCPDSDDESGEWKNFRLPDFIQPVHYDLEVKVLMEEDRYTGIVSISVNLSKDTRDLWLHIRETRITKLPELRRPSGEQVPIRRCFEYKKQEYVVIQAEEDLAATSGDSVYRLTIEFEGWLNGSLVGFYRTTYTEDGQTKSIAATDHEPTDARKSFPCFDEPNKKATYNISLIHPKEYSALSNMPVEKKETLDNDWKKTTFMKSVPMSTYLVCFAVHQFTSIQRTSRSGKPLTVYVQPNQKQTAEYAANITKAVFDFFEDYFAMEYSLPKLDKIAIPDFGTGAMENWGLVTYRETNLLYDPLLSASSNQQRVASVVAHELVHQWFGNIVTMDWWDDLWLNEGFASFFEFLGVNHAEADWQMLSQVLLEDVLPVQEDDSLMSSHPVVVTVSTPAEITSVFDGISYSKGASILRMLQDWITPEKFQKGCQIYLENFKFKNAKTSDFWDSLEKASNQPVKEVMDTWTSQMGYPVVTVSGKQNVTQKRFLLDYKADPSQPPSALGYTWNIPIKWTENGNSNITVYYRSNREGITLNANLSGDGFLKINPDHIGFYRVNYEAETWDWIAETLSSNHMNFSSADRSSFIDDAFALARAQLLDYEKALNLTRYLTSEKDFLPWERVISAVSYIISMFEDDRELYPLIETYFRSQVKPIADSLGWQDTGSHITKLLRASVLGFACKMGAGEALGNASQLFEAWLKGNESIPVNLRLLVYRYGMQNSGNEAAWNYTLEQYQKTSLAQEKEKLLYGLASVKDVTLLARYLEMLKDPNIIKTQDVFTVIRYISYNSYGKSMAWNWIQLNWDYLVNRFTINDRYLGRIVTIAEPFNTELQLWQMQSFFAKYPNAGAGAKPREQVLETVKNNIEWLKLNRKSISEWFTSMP
Sequence of APN (EC 3.4.11.2) (P15144 whole entry, species assumed): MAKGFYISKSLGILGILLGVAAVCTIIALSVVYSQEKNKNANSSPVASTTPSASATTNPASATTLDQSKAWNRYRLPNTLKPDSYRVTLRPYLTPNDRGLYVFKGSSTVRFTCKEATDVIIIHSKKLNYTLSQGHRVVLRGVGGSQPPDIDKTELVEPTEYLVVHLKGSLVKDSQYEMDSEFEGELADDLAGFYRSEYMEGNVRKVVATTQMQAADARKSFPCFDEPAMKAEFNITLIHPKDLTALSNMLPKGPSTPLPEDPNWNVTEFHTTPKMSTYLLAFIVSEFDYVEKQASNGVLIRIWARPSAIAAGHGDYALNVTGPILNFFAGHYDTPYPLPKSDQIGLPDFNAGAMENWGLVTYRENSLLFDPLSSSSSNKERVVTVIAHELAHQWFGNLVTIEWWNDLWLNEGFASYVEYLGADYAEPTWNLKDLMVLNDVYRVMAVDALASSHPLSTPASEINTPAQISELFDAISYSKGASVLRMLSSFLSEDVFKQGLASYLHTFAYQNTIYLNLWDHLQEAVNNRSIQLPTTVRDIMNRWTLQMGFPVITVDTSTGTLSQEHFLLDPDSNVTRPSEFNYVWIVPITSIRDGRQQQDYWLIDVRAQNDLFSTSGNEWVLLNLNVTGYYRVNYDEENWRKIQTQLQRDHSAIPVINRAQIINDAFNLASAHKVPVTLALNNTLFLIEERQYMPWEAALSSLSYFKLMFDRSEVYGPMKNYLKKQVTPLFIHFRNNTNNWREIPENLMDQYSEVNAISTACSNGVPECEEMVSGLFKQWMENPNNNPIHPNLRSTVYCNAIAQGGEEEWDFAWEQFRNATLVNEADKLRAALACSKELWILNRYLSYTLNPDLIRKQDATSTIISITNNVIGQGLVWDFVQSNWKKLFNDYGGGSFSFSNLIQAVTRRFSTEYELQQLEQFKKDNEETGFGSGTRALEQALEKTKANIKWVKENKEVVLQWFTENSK

Consider `CC(C)C[C@@H](N)[C@H](O)C(=O)N[C@H](C(=O)N[C@H](C(=O)N[C@@H](CC(=O)O)C(=O)O)C(C)C)C(C)C` [Amastatin], for which the “increase in mean systolic blood pressure compared to vehicle treated animals” value in the assay with SHR rats (40 mg/kg daily for 7 days, not significant (p=0.60)) is 5.8+/−7.0 mmHg. Further, in [1], the “Ang 1-7 level” value stood at 15 pg/mL and the “Ang 1-8 level” value turned out to be 1016 pg/mL. Besides, the “effect on APA activity in vitro” value in assay [2] is reported as “did not affect APA activity in vitro”. Moreover, in assay [2] (100 ng/ml Ang 1-8, 37° C. 10 min, 971 without Amastatin), the “Ang 2-8 formation rate” value is 1077 pg Ang 2-8/ml per minute. In addition, in the assay on human APA in plasma (0.1 μM Amastatin, 1 μg/ml APA), the “effect on the activity of human APA in plasma” value is reported as “did not affect the activity of human APA in plasma”. Moreover, in the assay with human APA in plasma (0.1 μM Amastatin, no added APA, 100 pg/ml renin, 60 min 37° C., untreated control 412 pg/ml), the “Ang 1-8 level in human heparin plasma” value was 752 pg/mL. In addition, the “reduction of Ang 1-8 levels by 1 μg/ml APA in the presence of 0.1 μM Amastatin” value in the assay on human APA in plasma (human heparin plasma, 266 pg/ml without Amastatin) stood at 323 pg/mL. For the same compound, the “change in circulating Ang 1-8” value in the assay with Balb/c mice (40 mg/kg i.p., 4 h following drug administration) is “decrease”. The “plasma Ang 1-7 level” value with Balb/c mice (4 h after i.p. injection, 40 mg/kg each, baseline below LLOQ) is less than 4 pg/mL. Further, on APN (EC 3.4.11.2), the “more potent in inhibiting APN compared to APA” value was 40 fold.
As to `C[C@H](CS)C(=O)N1CCC[C@H]1C(=O)O` [Captopril], in assay [1], the “Ang 1-7 level” value came to 100 pg/mL and the “Ang 1-8 level” value came out at 29 pg/mL. For the same compound, the “increase of Ang 1-7 following ACE inhibitor treatment alone” value with Balb/c mice (4 h after i.p. injection) is recorded as “not observed”.
For `N[C@H](CS)CCS(=O)(=O)O` [EC-33], the “effect on blood pressure” value in the assay with rats is “no effect on blood pressure”. The “selectivity for APA over APN” value with APA over APN is reported as “at least 100 fold”.
For the compound `NCCCC[C@H](N[C@@H](CCc1ccccc1)C(=O)O)C(=O)N1CCC[C@H]1C(=O)O` [Lisinopril], the “decrease in systolic blood pressure compared to vehicle treated animals” value with SHR rats (40 mg/kg of each drug daily for 7 days, measured 4 h after dosing, 5 animals per group) is recorded as 18.6+/−3.9 mmHg. In [1], the “Ang 1-7 level” value worked out at 153 pg/mL and the “Ang 1-8 level” value is 33 pg/mL. Further, in the assay on Balb/c mice (4 h after i.p. injection), the “increase of Ang 1-7 following ACE inhibitor treatment alone” value is listed as “not observed”. In addition, the “equilibrium Ang 1-8 level” value in the assay on SHR rat (after saline 42.7 pg/ml) worked out at 21.5 pg/mL. Moreover, the “equilibrium Ang 1-7 level” value in the assay on SHR rat (after saline below 3.4 pg/ml) stood at 12.1 pg/mL.
In the case of `N[C@@H](CCS(=O)(=O)O)CSSC[C@@H](N)CCS(=O)(=O)O` [RB150], the “effect on blood pressure” value at APA in the brain is “effective in lowering blood pressure”.
